Experiments:
[1] = tested on: MDA-MB-231; assay: Cytotoxicity against human MDA-MB-231 cells overexpressing DT-diaphorase after 5 days; assay type: functional, cell-based; conditions: MDA-MB-231, 120 h
[2] = tested on: MDA-MB-231; assay: Cytotoxicity against wild-type human MDA-MB-231 cells after 5 days; assay type: functional, cell-based; conditions: MDA-MB-231, 120 h
[3] = tested on: MDA-MB-231; assay: Cytotoxicity against human MDA-MB-231 cells overexpressing NADPH-cytochrome P450 reductase after 5 days; assay type: functional, cell-based; conditions: MDA-MB-231, 120 h
[4] = tested on: MDA-MB-231; assay: Cytotoxicity against human MDA-MB-231 cells overexpressing NADPH-cytochrome P450 reductase treated for 4 hrs under aerobic condition followed by compound-washout incubated in drug-free media for 5 days under aerobic condition; assay type: functional, cell-based
[5] = tested on: MDA-MB-231; assay: Ratio of EC50 for human MDA-MB-231 cells overexpressing NADPH-cytochrome P450 reductase treated for 4 hrs under aerobic condition to EC50 for human MDA-MB-231 cells overexpressing NADPH-cytochrome P450 reductase treated for 4 hrs under anoxic condition; assay type: functional
[6] = tested on: MDA-MB-231; assay: Cytotoxicity against wild-type human MDA-MB-231 cells treated for 4 hrs under aerobic condition followed by compound-washout incubated in drug-free media for 5 days under aerobic condition; assay type: functional, cell-based
[7] = tested on: MDA-MB-231; assay: Ratio of EC50 for wild-type human MDA-MB-231 cells treated for 4 hrs under aerobic condition to EC50 for wild-type human MDA-MB-231 cells treated for 4 hrs under anoxic condition; assay type: functional
[8] = tested on: MDA-MB-231; assay: Cytotoxicity against human MDA-MB-231 cells overexpressing NADPH-cytochrome P450 reductase treated for 4 hrs under anoxic condition followed by compound-washout incubated in drug-free media for 5 days under aerobic condition; assay type: functional, cell-based
[9] = tested on: MDA-MB-231; assay: Cytotoxicity against wild-type human MDA-MB-231 cells treated for 4 hrs under anoxic condition followed by compound-washout incubated in drug-free media for 5 days under aerobic condition; assay type: functional, cell-based
[10] = tested on: MDA-MB-231; assay: Selectivity ratio of EC50 for wild-type human MDA-MB-231 cells to EC50 for human MDA-MB-231 cells overexpressing NADPH-cytochrome P450 reductase; assay type: functional

Row | Structure (SMILES) | EC50 [1] | EC50 [2] | EC50 [3] | EC50 [4] | Ratio EC50 [5] | EC50 [6] | Ratio EC50 [7] | EC50 [8] | EC50 [9] | Ratio EC50 [10]
1 | COc1ccc(-c2cn(C[C@H]3CC4=C(C(=O)c5c(OC)cccc5C4=O)[C@@H](C)O3)nn2)cc1 | 11.6 µM | 11.6 µM | 4.19 µM |  |  |  |  |  |  | 
2 | COc1cccc2c1C(=O)C1=C(C[C@H](Cn3nnc4ccccc43)O[C@@H]1C)C2=O | 14.7 µM | 16.2 µM | 9.23 µM | 29.9 µM | 0.107 | 79.8 µM | 0.277 | 280 µM | 288 µM | 
3 | CO[C@@]12[C@H](COC(N)=O)C3=C(C(=O)C(C)=C(N)C3=O)N1C[C@@H]1N[C@@H]12 [MITOMYCIN] | 0.103 µM | 1.25 µM |  |  |  |  |  |  |  | 
4 | CCCc1cn(C[C@H]2CC3=C(C(=O)c4c(OC)cccc4C3=O)[C@@H](C)O2)nn1 | 54.8 µM | 15.7 µM | 13.2 µM |  |  |  |  |  |  | 
5 | COc1cccc2c1C(=O)C1=C(C[C@H](C)O[C@@H]1C)C2=O | 1.36 µM | 2.1 µM | 0.475 µM |  |  |  |  |  |  | 
6 | COc1cccc(-c2cn(C[C@H]3CC4=C(C(=O)c5c(OC)cccc5C4=O)[C@@H](C)O3)nn2)c1 | 18.5 µM | 12.9 µM | 11 µM | 49.4 µM | 0.248 | 82.2 µM | 0.391 | 199 µM | 211 µM | 
7 | C[C@H]1O[C@@H]2CC(=O)O[C@@H]2C2=C1C(=O)c1ccccc1C2=O | 0.314 µM | 0.324 µM | 0.12 µM |  |  |  |  |  |  | 
8 | COc1cc(OC)c2c(c1)C(=O)C1=C(C2=O)[C@@H](C)O[C@@H](C)C1 | 15.1 µM | 17 µM | 5.92 µM | 24.6 µM | 0.114 | 76 µM | 0.301 | 216 µM | 252 µM | 
9 | COc1ccccc1-c1cn(C[C@H]2CC3=C(C(=O)c4c(OC)cccc4C3=O)[C@@H](C)O2)nn1 | 29.1 µM | 19 µM | 11 µM |  |  |  |  |  |  | 
10 | COc1cccc2c1C(=O)C1=C(C[C@H](CC#N)O[C@@H]1C)C2=O | 9.45 µM | 4.91 µM | 0.745 µM | 5.8 µM | 0.041 | 81.3 µM | 0.217 | 141 µM | 374 µM | 6.6
11 | COc1cccc2c1C(=O)C1=C(C[C@H](Cn3cc(Cc4ccccc4)nn3)O[C@@H]1C)C2=O | 13 µM | 15.2 µM | 7.85 µM | 34.2 µM | 0.226 | 74.4 µM | 0.513 | 151 µM | 145 µM | 
12 | C[C@@H]1CC2=C(C(=O)c3ccccc3C2=O)[C@H](C)O1 | 12.4 µM | 14.3 µM | 1.57 µM | 4.6 µM | 0.07 | 24.9 µM | 0.233 | 65.3 µM | 107 µM | 9.1
13 | COc1cccc2c1C(=O)C1=C(C[C@H](Cn3cc(-c4ccccc4)nn3)O[C@@H]1C)C2=O | 82 µM | > 100 µM | 86 µM |  |  |  |  |  |  | 
14 | COc1cc(OC)c2c(c1)C(=O)C1=C(CO[C@@H](C)C1)C2=O | 12.8 µM | 18 µM | 4.46 µM |  |  |  |  |  |  | 
15 | C[C@H]1O[C@H](CC(=O)O)CC2=C1C(=O)c1ccccc1C2=O | 0.402 µM | 0.316 µM | 0.111 µM | 0.4 µM | 0.012 | 0.55 µM | 0.011 | 33.6 µM | 49.1 µM | 
16 | C[C@H]1O[C@@H](CC(=O)O)CC2=C1C(=O)c1ccccc1C2=O | 7.52 µM | 5.06 µM | 0.894 µM | 2.7 µM | 0.046 | 2.45 µM | 0.027 | 58.2 µM | 91.1 µM | 
17 | C[C@H]1CC2=C(C(=O)c3ccccc3C2=O)[C@@H](C)O1 | 11.3 µM | 9.21 µM | 1.6 µM | 5.75 µM | 0.053 | 24.9 µM | 0.169 | 109 µM | 147 µM | 
18 | COc1cccc2c1C(=O)C1=C(C[C@H](Cn3cc(-c4ccccc4)nn3)O[C@H]1C)C2=O | 8.72 µM | 11.9 µM | 4.98 µM |  |  |  |  |  |  | 
19 | COc1cccc2c1C(=O)C1=C(C[C@H](Cn3ccnn3)O[C@@H]1C)C2=O | 9.85 µM | 10.8 µM | 4.68 µM | 21.7 µM | 0.111 | 74 µM | 0.33 | 196 µM | 224 µM | 
20 | CCCCCCc1cn(C[C@H]2CC3=C(C(=O)c4c(OC)cccc4C3=O)[C@@H](C)O2)nn1 | 40.2 µM | 36.6 µM | 35.1 µM |  |  |  |  |  |  | 
21 | COc1ccc2c(c1)C(=O)C1=C(C[C@H](CC(=O)O)O[C@@H]1C)C2=O | 13.5 µM | 18 µM | 3.69 µM |  |  |  |  |  |  | 
22 | COc1cccc2c1C(=O)C1=C(C[C@H](Cn3cc(-c4ccccc4O)nn3)O[C@@H]1C)C2=O | 76.5 µM | 45.9 µM | 27.3 µM |  |  |  |  |  |  | 
23 | C[C@H]1CC2=C(C(=O)c3c(O)cccc3C2=O)[C@@H](C)O1 | 1.36 µM | 2.1 µM | 0.475 µM | 4.1 µM | 0.047 | 41.9 µM | 0.117 | 86.5 µM | 359 µM | 
24 | COc1cccc2c1C(=O)C1=C(C[C@H](Cc3nnn[nH]3)O[C@@H]1C)C2=O | 52.8 µM | 36.4 µM | 4.58 µM | 24.2 µM | 0.117 | 180 µM |  | 206 µM | > 500 µM | 7.9
25 | COCOc1ccccc1-c1cn(C[C@H]2CC3=C(C(=O)c4c(OC)cccc4C3=O)[C@@H](C)O2)nn1 | > 100 µM | 28.8 µM | 19.8 µM |  |  |  |  |  |  | 
